Measured values published in patent US12612442B2, “G12-specific designer receptor exclusively activated by designer drugs” (CELL NETWORKS GMBH, priority 2019, dated 2026).

Tests used:
CNR1 = CNR1 (Homo sapiens, UniProt P21554); settings: HEK293 cells expressing CNR1
Experimental: (§5) The transfected cells were harvested, seeded in a white 96-well plate and loaded with 10 μM CTZ in the same manner described in the NanoBiT-G-protein dissociation assay. After measuring an initial luminescent signal, test compounds were added to the cells. Then, 3-5 min later, luminescent signals were measured and fold-change values were plotted as described above.

RhoA [1] = assay: Active RhoA pulldown assay in Cal27 cells; format: cell-based; settings: 10 μM CP-55940, 1 μM Ang II, 5 min
Experimental: (§1) HN12 cells and Cal27 cells were cultured to 50% confluency, and then serum starved overnight. To induce RhoA activation, cells were treated with 5 μM LPA, 1 μM Ang II, or 10 μM CP-55940 for 5 min. Active RhoA levels were measured using the RhoA Pull-Down Activation Assay Biochem Kit (bead pull-down format; Cytoskeleton) following the manufacturer instruction using a modified lysis buffer (50 mM Tris-HCl (pH 7.2), 500 mM NaCl, 10 mM MgCl2, 0.1% SDS, 1% NP-40). Briefly, after stimulation, samples were lysed and protein concentrations were quantified using DC Protein Assay (BioRad). Samples were adjusted to the same concentration with lysis buffer and 500 μg of each protein lysate was added to 15 μL GST-tagged Rhotekin-RBD bound to Sepharose beads. Samples were incubated while rocking at 4° C. for 1.5 h. Beads were then washed, eluted in Laemmli sample buffer, and analyzed by western blot using a mouse monoclonal anti-RhoA antibody (Cytoskeleton).

RhoA [2] = assay: Active RhoA pulldown assay in HN12 cells; format: cell-based; settings: 10 μM CP-55940, 1 μM Ang II, 5 min
Experimental: as §1

M3D-NMBR/ICL3 = assay: NanoBiT-G-protein dissociation assay, M3D-NMBR/ICL3; format: cell-based, human; settings: 10 μM CNO; parental HEK293 cells
Experimental: (§2) Plasmid transfection was performed in a 6-well plate with a mixture of 100 ng Gα-Lg-encoding plasmid, 500 ng Sm-Gβ-encoding plasmid, 500 ng untagged Gγ2-encoding plasmid, 200 ng GPCR-encoding plasmid with or without 100 ng RIC8-encoding plasmid (per well, hereafter). Unless otherwise stated, the combination of following plasmid mixtures was used: Gαs-Lg, Sm-Gβ1, Gγ2 and RIC8B for NanoBiT-Gs; Gαi1-Lg, Sm-Gβ5 and Gγ2 for NanoBiT-Gi1; Gαi2-Lg, Sm-Gβ3 and Gγ2 for NanoBiT-Gi2; Gαi3-Lg, Sm-Gβ3 and Gγ2 for NanoBiT-Gi3; Gαo-Lg, Sm-Gβ1 and Gγ2 for NanoBiT-Go; Gαq-Lg, Sm-Gβ1, Gγ2 and RIC8A for NanoBiT-Gq; Gα12-Lg, Sm-Gβ1, Gγ2 and RIC8A for NanoBiT-G12; Gα13-Lg, Sm-Gβ1, Gγ2 and RIC8A for NanoBiT-G13. After 1-day culture, the transfected cells were harvested with 1 mL of 0.53 mM EDTA-containing Dulbecco's PBS (D-PBS), followed by addition of 2 mL the HEPES-containing HBSS. The cells were pelleted by centrifugation at 190 g for 5 min and resuspended in 2 mL of the 0.01% BSA- and 5 mM HEPES (pH 7.4)-containing HBSS (assay buffer). […] After 2-h incubation with coelenterazine at room temperature, background luminescent signals were measured using a luminescent microplate reader (SpectraMax L, Molecular Devices). […] Luminescent signals were measured 3-5 min after ligand addition and divided by the initial count. […]

M3D-GPR183/ICL3 [3] = molecular target: T1, M3D-GPR183/ICL3 (Homo sapiens, UniProt P20309, A239G/DEL264-389/DEL400-485/E393L/E394T/G397S/K260R/L396K/M398G/R261T/T262A/V391N/Y149C); assay: TGFα shedding assay in ΔGq HEK293 cells, M3D-GPR183/ICL3; format: cell-based; settings: 10 μM CNO
T1 construct: expressed in transfected cells; host or cells: parental HEK293 (NanoBiT-G-protein assay); ΔGq HEK293 (TGFα shedding assay)
T1 sequence (P20309 with tags, fused parts or gaps Y149C/A239G/K260R/R261T/T262A/DEL264-389/V391N/E393L/E394T/L396K/G397S/M398G/DEL400-485): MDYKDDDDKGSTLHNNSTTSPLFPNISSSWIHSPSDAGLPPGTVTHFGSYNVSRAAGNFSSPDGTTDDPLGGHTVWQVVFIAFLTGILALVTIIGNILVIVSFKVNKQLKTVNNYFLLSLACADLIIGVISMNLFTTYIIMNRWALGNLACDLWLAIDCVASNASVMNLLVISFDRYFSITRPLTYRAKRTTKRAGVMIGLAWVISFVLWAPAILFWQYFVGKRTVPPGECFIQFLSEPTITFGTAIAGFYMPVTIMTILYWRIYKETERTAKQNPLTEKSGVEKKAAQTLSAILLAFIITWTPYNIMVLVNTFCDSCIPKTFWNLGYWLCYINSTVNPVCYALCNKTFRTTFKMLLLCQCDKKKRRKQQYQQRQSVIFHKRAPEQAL
Experimental: (§3) The TGFα shedding assay was performed as described previously (Inoue et al., 2012) with minor modifications. Plasmid transfection was performed in a 6-well plate with a mixture of 500 ng AP-TGFα-encoding plasmid, 200 ng GPCR-encoding plasmid with or without 100 ng Gα-encoding plasmid (per well, hereafter). After 1-day culture, the transfected cells were harvested by trypsinization, pelleted by centrifugation at 190 g for 5 min and washed once with Hank's Balanced Salt Solution (HBSS) containing 5 mM HEPES (pH 7.4). After centrifugation, the cells were resuspended in 6 ml of the HEPES-containing HBSS. […] The cell suspension was seeded in a 96-well culture plate (cell plate) at a volume of 90 μl (per well hereafter) and incubated for 30 min in a 5% CO2 incubator at 37° C. The cells were treated with a GPCR ligand (10×, diluted in HBSS containing 5 mM HEPES (pH 7.4) and 0.01% (w/v) bovine serum albumin (BSA, fatty acid-free and protease-free grade; Serva)). After spinning the cell plates, conditioned media (80 μl) was transferred to an empty 96-well plate (conditioned media (CM) plate). […] Absorbance at 405 nm (Ab405) of the plates was measured, using a microplate reader (SpectraMax 340 PC384, Molecular Devices), before and after 1-h or 2-h incubation at room temperature. Ligand-induced AP-TGFα release was calculated as described previously. […]

M3D-LTB4R2/ICL3 = assay: NanoBiT-G-protein dissociation assay, M3D-LTB4R2/ICL3; format: cell-based, human; settings: 10 μM CNO; parental HEK293 cells
Experimental: as §2

M3D-GPR183/ICL3 [4] = molecular target: T1, M3D-GPR183/ICL3; assay: NanoBiT-G-protein dissociation assay, M3D-GPR183/ICL3; format: cell-based
Experimental: (§4) Plasmid transfection was performed in a 6-well plate with a mixture of 100 ng Gα-Lg-encoding plasmid, 500 ng Sm-Gβ-encoding plasmid, 500 ng untagged Gγ2-encoding plasmid, 200 ng GPCR-encoding plasmid with or without 100 ng RIC8-encoding plasmid (per well, hereafter). Unless otherwise stated, the combination of following plasmid mixtures was used: Gαs-Lg, Sm-Gβ1, Gγ2 and RIC8B for NanoBiT-Gs; Gαi1-Lg, Sm-Gβ5 and Gγ2 for NanoBiT-Gi1; Gαi2-Lg, Sm-Gβ3 and Gγ2 for NanoBiT-Gi2; Gαi3-Lg, Sm-Gβ3 and Gγ2 for NanoBiT-Gi3; Gαo-Lg, Sm-Gβ1 and Gγ2 for NanoBiT-Go; Gαq-Lg, Sm-Gβ1, Gγ2 and RIC8A for NanoBiT-Gq; Gα12-Lg, Sm-Gβ1, Gγ2 and RIC8A for NanoBiT-G12; Gα13-Lg, Sm-Gβ1, Gγ2 and RIC8A for NanoBiT-G13. After 1-day culture, the transfected cells were harvested with 1 mL of 0.53 mM EDTA-containing Dulbecco's PBS (D-PBS), followed by addition of 2 mL the HEPES-containing HBSS. The cells were pelleted by centrifugation at 190 g for 5 min and resuspended in 2 mL of the 0.01% BSA- and 5 mM HEPES (pH 7.4)-containing HBSS (assay buffer). The cell suspension was seeded in a 96-well culture white plate (Greiner Bio-One) at a volume of 80 μl (per well hereafter) and loaded with 20 μl of 50 μM coelenterazine (Carbosynth) solution diluted in the assay buffer. After 2-h incubation with coelenterazine at room temperature, background luminescent signals were measured using a luminescent microplate reader (SpectraMax L, Molecular Devices). The inventors note that incubation time with coelenterazine can be shortened, but an effect of baseline drift should be taken into account (FIG. 14C-E). Test compound (6×, diluted in the assay buffer) was manually added to the cells (20 μl). Luminescent signals were measured 3-5 min after ligand addition and divided by the initial count. The ligand-induced signal ratio was normalized to that treated with vehicle. The consequent fold-change values were fitted to a four-parameter sigmoidal concentration-response described above.

[5] = tested on: DREADDs (M3D, M4D, M3D-Gs, M3D-GPR183/ICL3, M3D-GPR132/ICL3); assay: NanoBiT-G-protein dissociation assay, DREADD panel with titrated CNO; format: cell-based, human; settings: all of the DREADDs, HEK293 cells, read-out: EC50 values of CNO for each primary-coupling G-protein
Experimental: as §2

M3D-P2RY10/ICL3 = assay: NanoBiT-G-protein dissociation assay, M3D-P2RY10/ICL3; format: cell-based, human; settings: 10 μM CNO; parental HEK293 cells
Experimental: as §2

M3D-GPR132/ICL3 [6] = molecular target: T2, M3D-GPR132/ICL3 (Homo sapiens, UniProt P20309, A239G/DEL260-297/DEL301-447/DEL453-484/K449L/K485Q/T451A/Y149C); assay: NanoBiT-G-protein dissociation assay, M3D-GPR132/ICL3; format: cell-based
T2 construct: expressed in transfected cells; host or cells: parental HEK293 (NanoBiT-G-protein assay); ΔGq HEK293 (TGFα shedding assay)
T2 sequence (P20309 with tags, fused parts or gaps Y149C/A239G/DEL260-297/DEL301-447/K449L/T451A/DEL453-484/K485Q): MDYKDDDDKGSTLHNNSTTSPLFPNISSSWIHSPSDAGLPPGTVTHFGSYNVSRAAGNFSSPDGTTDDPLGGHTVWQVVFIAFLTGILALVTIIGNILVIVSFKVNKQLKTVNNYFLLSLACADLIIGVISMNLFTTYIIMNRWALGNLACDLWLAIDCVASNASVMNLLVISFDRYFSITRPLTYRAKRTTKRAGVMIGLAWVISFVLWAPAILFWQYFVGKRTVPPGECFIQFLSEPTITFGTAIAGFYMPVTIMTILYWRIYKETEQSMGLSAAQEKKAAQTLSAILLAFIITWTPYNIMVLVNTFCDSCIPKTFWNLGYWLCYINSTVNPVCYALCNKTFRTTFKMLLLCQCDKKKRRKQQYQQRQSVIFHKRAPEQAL
Experimental: as §4

M3D-GPR132/ICL3 [7] = molecular target: T2, M3D-GPR132/ICL3; assay: TGFα shedding assay in ΔGq HEK293 cells, M3D-GPR132/ICL3; format: cell-based; settings: 10 μM CNO
Experimental: as §3

RhoA [8] = assay: NanoBiT-RhoA assay in MDA-MB-231 cells (endogenously expressed GPCRs); format: cell-based, human; settings: thrombin 1000 U L^−1
Experimental: as §5

RhoA [9] = assay: NanoBiT-RhoA assay in PC-3 cells (endogenously expressed GPCRs); format: cell-based, human; settings: thrombin 1000 U L^−1
Experimental: as §5

[10] = 10 μM CNO, parental HEK293 cells
[11] = titrated CNO, NanoBiT-Gs, Go, Gq, G12 compared

Sequence of CNR1 (P21554 whole entry): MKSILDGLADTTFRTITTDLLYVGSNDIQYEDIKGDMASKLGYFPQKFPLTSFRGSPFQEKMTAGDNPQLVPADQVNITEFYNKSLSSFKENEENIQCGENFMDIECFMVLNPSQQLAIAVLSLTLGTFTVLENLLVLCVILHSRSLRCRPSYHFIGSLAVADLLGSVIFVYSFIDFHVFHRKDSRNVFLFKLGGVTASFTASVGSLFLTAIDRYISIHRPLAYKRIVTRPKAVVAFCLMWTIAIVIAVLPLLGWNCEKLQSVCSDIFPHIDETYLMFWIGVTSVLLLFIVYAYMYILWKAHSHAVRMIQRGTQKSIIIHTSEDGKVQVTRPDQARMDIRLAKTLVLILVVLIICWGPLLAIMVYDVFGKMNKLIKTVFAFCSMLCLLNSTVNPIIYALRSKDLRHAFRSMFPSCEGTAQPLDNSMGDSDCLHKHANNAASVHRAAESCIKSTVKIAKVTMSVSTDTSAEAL

CCCCCCC(C)(C)c1ccc([C@@H]2C[C@H](O)CC[C@H]2CCCO)c(O)c1 [CP-55940]
RhoA activation (CNR1): RhoA activation occurred
RhoA activation (GTP-bound RhoA pulldown) (RhoA [1]): induced activation of RhoA
RhoA activation (GTP-bound RhoA pulldown) (RhoA [2]): induced activation of RhoA

C[N+]1([O-])CCN(C2=Nc3cc(Cl)ccc3Nc3ccccc32)CC1 [CNO, clozapine-N-oxide]
G12 and Go coupling (NanoBiT-G12 / NanoBiT-Go screening) (M3D-NMBR/ICL3): coupled to G12 and not to Go
G12 signaling (TGFα shedding response) (M3D-GPR183/ICL3 [3]): significant G12 signaling
G12 and Go coupling (NanoBiT-G12 / NanoBiT-Go screening) (M3D-LTB4R2/ICL3): induced both G12 and Go coupling with a higher Go dissociation signal
NanoBiT-G13 dissociation signal (M3D-GPR183/ICL3 [4]; 10 μM CNO): lack of G13 activation
G12 and Go coupling (NanoBiT-G12 / NanoBiT-Go screening) (M3D-GPR183/ICL3 [4]; [10]): coupled to G12 and not to Go
G12 dissociation signal (M3D-GPR183/ICL3 [4]; [11]): robust G12 dissociation signal
EC50 [5]: 100 to 1000 nM
G12 and Go coupling (NanoBiT-G12 / NanoBiT-Go screening) (M3D-P2RY10/ICL3): coupled to G12 and not to Go
NanoBiT-G13 dissociation signal (M3D-GPR132/ICL3 [6]; 10 μM CNO): lack of G13 activation
G12 and Go coupling (NanoBiT-G12 / NanoBiT-Go screening) (M3D-GPR132/ICL3 [6]; [10]): coupled to G12 and not to Go
G12 dissociation signal (M3D-GPR132/ICL3 [6]; [11]): robust G12 dissociation signal
G12 signaling (TGFα shedding response) (M3D-GPR132/ICL3 [7]): significant G12 signaling

thrombin
RhoA activation (RhoA [8]): activated RhoA
RhoA activation (RhoA [9]): activated RhoA

angiotensin II (DRVYIHPF; Angiotensin-2; UniProt P01019 25-32, looked up) [Ang II, endogenous ligand of AGTR1]
RhoA activation (GTP-bound RhoA pulldown) (RhoA [1]): induced activation of RhoA
RhoA activation (GTP-bound RhoA pulldown) (RhoA [2]): induced activation of RhoA
